Data set [1] relates to secreted IL-18. Description: ELISA of secreted cytokine from human ARPE-19 cells. It counts as cell-based. Particulars: Alu RNA (FIG. 4A), Fluoxetine 10 µM, P < 0.005.
The subject of data set [2] is dry macular degeneration. Description: Health insurance claims analysis (PearlDiver database) of dry macular degeneration among patients with depression. It counts as in vivo, human. From the text:
Data on patients with commercial health insurance was obtained from the PearlDiver Patient Records Database (Colorado Springs, Colorado, United States of America), which captures health care claims and medication usage for persons in the Humana network from 2007 to 2017. These de-identified data are Health Insurance Portability and Accountability Act-compliant and were deemed by the University of Virginia Institutional Review Board (IRB; University of Virginia, Charlottesville, United States of America) as exempt from IRB approval requirements.
Patients were included in the analysis if they had continuous enrollment in the plan for at least 1 year and had at least 2 medical claims of Depression and were at least 50 years of age at baseline. Individuals with pre-existing Dry Macular Degeneration (1 or more medical claims prior to diagnosis of Depression) were excluded. Disease claims were identified by International Classification of Diseases (ICD)-9-CM and ICD-10-CM codes.
Individuals were classified as receiving Fluoxetine if they filled one or more outpatient pharmacy prescriptions for generic or brand versions, either in sole form or as a combination medication, as identified by National Drug Codes of the Food and Drug Administration (FDA) of the United States.
Time to initial diagnosis of Dry Macular Degeneration, which was confirmed by 2 or more medical claims, was the dependent variable for this analysis.
To analyze the risk of Dry Macular Degeneration between those exposed to Fluoxetine and those not exposed to Fluoxetine, an adjusted Cox proportional hazards model was fit. The adjusted model included as covariates age, gender, race, smoking, and body mass index.
The event rates of dry macular degeneration in the general population and in the depression cohort are shown. Fluoxetine use was associated with a crude risk reduction of 28%. P < 0.0001 by χ2 test. Fluoxetine use was associated with a reduction in the hazard of developing dry macular degeneration. P < 0.0001 by likelihood ratio test.

Data set [3] relates to caspase-1 activation. Description: Western blot of Alu RNA-induced caspase-1 activation in mouse BMDMs. It counts as cell-based. Conditions: Alu RNA-transfected mouse BMDMs, Fluoxetine 10 µM, n = 3 per group. The procedure: (§1) Cell culture. The human retinal pigment epithelial cell line ARPE-19 (ATCC) was maintained in Dulbecco’s Modified Eagle Medium (DMEM) supplemented with 10% fetal bovine serum (FBS) and standard antibiotics. Mouse bone marrow derived macrophages (BMDMs) were cultured in Iscove’s modified Dulbecco’s media (IMDM) with 10% FBS and 20% L929 supernatants. All cells were maintained at 37° C. in a 5% CO2 environment.
(§2) In order to test for the ability of fluoxetine to inhibit inflammasome activation, cells were transfected with (SEQ ID NO: 1) RNA or mock-transfected for 12 hour and pre-treated with Fluoxetine (10 µM) for 1 hour and again after Alu RNA (SEQ ID NO: 1) transfection. Supernatants were collected and were briefly spun down to remove floating cells. Proteins from the cell-free supernatant were precipitated by adding sodium deoxycholate (0.15% final) followed by adding TCA (7.2% final) and incubating on ice overnight. Samples were spun down at 13000 × g for 30 minutes and pellets were washed 2 times with ice-cold acetone. Precipitated proteins solubilized in 4X LDS Buffer with 2-mercaptoethanol were resolved by SDS-PAGE on NOVEX® brand Tris-Glycine Gels (Invitrogen Corporation, Carlsbad, California, United States of America) and transferred onto Immobilon-FL PVDF membranes (MilliporeSigma, Burlington, Massachusetts, United States of America). […]

Data set [4] concerns amyloid beta-induced RPE degeneration. Description: Oligomerized amyloid beta-induced RPE degeneration in mice (fundus photos). Type of data set: in vivo, mouse. Particulars: subretinal oligomerized amyloid beta, fluoxetine 172 ng intravitreous, 7 days.
Procedure: The ability of fluoxetine to inhibit RPE degeneration induced by oligomerized amyloid beta was also tested. Oligomerized amyloid beta (0.6 micromoles; AnaSpec Inc., Fremont, California, United States of America) was injected into the subretinal space and fluoxetine (172 ng; TCI Chemicals) was injected into the vitreous humor. Fundus photos were captured 7 days later.
For data set [5], the system named is Alu RNA-induced RPE degeneration. Description: Alu RNA-induced RPE degeneration in mice (ZO-1-stained RPE flat mounts). Type of data set: in vivo, mouse. Conditions: subretinal Alu RNA 300 ng, drug 1 mM in 0.5 µl intravitreous 24 hours before and immediately after, 7 days. The procedure:
Animals. Animal experiments were approved by the University of Virginia (UVA) Institutional Animal Care and Use Committee. C57BL/6J mice (The Jackson Laboratory) were anesthetized with ketamine hydrochloride and xylazine.
The ability of various antidepressant drugs to inhibit Alu RNA (SEQ ID NO: 1) induced RPE degeneration was tested in mice. In vitro transcribed Alu RNA (SEQ ID NO: 1; 300 ng in 1 µl) or vehicle control (PBS) were injected subretinally into mice. Fluoxetine (FLX), Citalopram (CIT), Paroxetine (PAR), Sertraline (SER), Escitalopram (ESC), Venlafaxine (VEN), Imipramine (IMI), Amitriptyline (AMI), Agomelatine (AGO; all from Cayman Chemical Company, Ann Arbor, Michigan, United States of America; 1 mM in 0.5 µl), or PBS was injected into the vitreous humor 24 hours before and immediately after Alu RNA (SEQ ID NO: 1) injections. Animals were euthanized 7 days after Alu RNA (SEQ ID NO: 1) injection, and the eyes were enucleated.
RPE health was assessed by immunofluorescence staining of zonula occludens-1 (ZO-1) on RPE flat mounts. Flat mounts were fixed with 2% paraformaldehyde, stained with rabbit polyclonal antibodies against mouse ZO-1 (Invitrogen; 1:100), and visualized with Alexa-594 (Invitrogen), and imaged using an A1R Nikon confocal microscope. Images were graded as healthy or degenerated in masked fashion. […]

The test system of data set [6] is ASC specks. Description: ASC speck assay in BMDMs. It counts as cell-based, mouse. Particulars: Alu RNA-transfected BMDMs; Fluoxetine 10 µM pretreatment 2 hours; n = 5; P = 0.006. As for the experimental part:
The ASC speck assay was employed as a measure of inflammasome activation. BMDMs seeded on chambered coverslips (30,000 cells/well) for 12 hours were pretreated with Fluoxetine (10 µM) or 0.1% DMSO (control) for 2 hours. Cells were transfected with Alu RNA (SEQ ID NO: 1) using LIPOFECTAMINE™ 3000 brand transfection reagent (Thermo Fisher Scientific, Waltham, Massachusetts, United States of America) for 12 hours. Coverslips were fixed with 2% paraformaldehyde (15 minutes at room temperature), washed with PBS, permeabilized, blocked with blocking buffer (PBS, 0.1% TX-100, 5% normal goat serum; 1 hour at 4° C.) and incubated with anti-ASC antibody (Adipogen; 1:300) with blocking buffer. Nuclei were stained with DAPI. Slides mounted using FLUOROMOUNT-G® brand mounting medium (SouthernBiotech, Birmingham, Alabama, United States of America) were imaged by confocal microscopy (Nikon A1R). The numbers of specks per 40x field were compared by two-tailed Student’s t test.

Data set [7] has as its system secreted IL-1β. Description: ELISA of secreted cytokine from mouse bone marrow derived macrophages. Type of data set: cell-based. Conditions: mouse BMDMs, B2 RNA (FIG. 3B), Fluoxetine 10 µM, P = 0.01.
In data set [8] the test system is cataract formation. Description: Cataract formation after administration of fluoxetine preparations to the eye. Type of data set: in vivo.
Data set [9] relates to Alu RNA-induced RPE degeneration. Description: Alu RNA-induced RPE degeneration in mice, racemic fluoxetine vs enantiomers (fundus photos). It counts as in vivo, mouse. Conditions: subretinal Alu RNA 180 ng, 172 ng drug intravitreous, 7 days.
Procedure: In vitro transcribed Alu RNA (SEQ ID NO: 1; 180 ng) was injected into the subretinal space of mice and 172 ng racemic fluoxetine (TCI Chemicals, Portland, Oregon, United States of America) or enantiomers of fluoxetine (Santa Cruz Biotechnology, Inc., Dallas, Texas, United States of America) was injected into the vitreous humor. Fundus photos were captured 7 days later. […] Arrowheads show the extent and intensity of degeneration of the retinal pigmented epithelium (RPE).
The test system of data set [10] is caspase-1 activation. Description: Western blot of Alu RNA-induced caspase-1 activation in human ARPE19 cells. It counts as cell-based. Conditions: Alu RNA-transfected human ARPE19 cells, Fluoxetine 10 µM, n = 3 per group. The procedure: as §1, §2

Take `CNCCC(Oc1ccc(C(F)(F)F)cc1)c1ccccc1` (racemic) [Fluoxetine, N-methyl-3-phenyl-3-[4-(trifluoromethyl)phenoxy]propan-1-amine]: the “secreted IL-18 (FIG. 4A)” value in data set [1] is “statistically significantly reduced”. The “Hazard Ratio (95% Confidence Interval) of developing dry macular degeneration” value in data set [2] (Fluoxetine Use Yes vs. No, multivariate Cox regression corrected for age, gender, race, smoking, body mass index) is listed as 0.590 (0.565, 0.616). Moreover, the “crude risk reduction of dry macular degeneration” value in [2] (Fluoxetine use vs no use, P < 0.0001 by χ2 test) came to 28%. For the same compound, the “rate of developing dry macular degeneration (Kaplan-Meier)” value in [2] (Fluoxetine use, log rank test P < 0.0001 (FIG. 7)) is “slower rate”. Besides, the “Event Rate of dry macular degeneration” value in [2] (Fluoxetine users (Ever), depression cohort) was found to be 3.5%. Besides, in data set [2] (Fluoxetine users (Ever), depression cohort, age at least 50, 84,603 total patients), the “Dry Macular Degeneration (#)” value was 3,000. Besides, the “caspase-1 activation (cleavage of pro-caspase-1 into active caspase-1)” value in data set [3] and in [10] was “reduced” in each case. The “RPE degeneration extent and intensity (fundus photos)” value (from here on “RPE degeneration extent and intensity”) in data set [4] is “reduced the RPE degeneration extent and intensity”; in data set [9], “reduced the RPE degeneration extent and intensity, although the protection was partial”. The “RPE degeneration (percentage of eyes with RPE degeneration)” value in data set [5] is on record as “significantly reduced”. Also, the “ASC speck formation (number of specks per 40x field)” value in data set [6] is listed as “inhibited”. Moreover, in [7], the “secreted IL-1β (FIG. 3B)” value is reported as “statistically significantly reduced”. The “cataract formation, share of subjects” value in [8] is given as “up to 50%”.

Turning to `CNCC[C@@H](Oc1ccc(C(F)(F)F)cc1)c1ccccc1` [R-fluoxetine], in data set [9], the “RPE degeneration extent and intensity” value is “more complete protection”.

With `CNCC[C@H](Oc1ccc(C(F)(F)F)cc1)c1ccccc1` [S-fluoxetine], the “RPE degeneration extent and intensity” value in data set [9] is “more complete protection”.
